# Patent US4115541A (priority 1975, dated 1978)
# Assays:
# [1] = Distribution of 99mTc-Sn-AEDP and 85Sr in rabbits, carrier effect of AEDP (Example 4); type: in vivo, rabbit; conditions: 2 Hrs.
# Experimental: Adult New Zealand albino rabbits having an average weight of 3.8 kg were utilized. Strontium-85 was employed as a standard for comparison. […] Each dosage is contained in a volume of 1 ml.
# The animals were sacrificed serially from 1 to 24 hours after injection and the activities in major organs were determined by counting multiple samples from each organ in a scintillation well counter (the technetium-99m counts were corrected for the Compton contributions from the strontium-85 activity in the technetium-99m energy window). Multiple samples were counted from the tibia, femur, spine and pelvic bones; the total activity in the skeleton was estimated by assuming the whole skeleton consisted of equal proportions by weight of tibia, spine, femur and pelvis and that the skeletal mass was 10% of the body weight. The red marrow was sampled from the femur and the total marrow was assumed to be 2.2% of the total body weight. Similarly, blood volume was assumed to be 7% and the skeletal muscle 43% of the body weight. The whole liver and both kidneys were weighed and multiple samples from each were counted to measure the total activity in each organ.
# In another series of experiments carried out as described in Example 2, the distribution of technetium 99m from its 99m-technetium-tin-methylene diphosphonate complex was determined in albino rabbits, again in comparison with strontium-85.
# The distribution of technetium 99m from its 99m technetium-tin-1-amino-ethane-1,1-diphosphonate complex was determined as in Example 3 and compared with the distribution of strontium-85.
# [2] = physical; cited from earlier work
compound,measurement,setting,value
"99m technetium-tin-1-amino-ethane-1,1-diphosphonate complex [^99m Tc-Sn-AEDP]","Blood, % Dose in Whole Organ",[1]; AEDP 0.01 mg/kg,1.18 % Dose
same,"Blood, % dose/1% body weight",[1]; AEDP 0.01 mg/kg,0.168 % Dose/1% Body weight
same,"Bone Ave, % Dose/1% Body weight",[1]; AEDP 0.01 mg/kg,7.60 % Dose/1% Body weight
same,"Femur, % dose/1% body weight",[1]; AEDP 0.01 mg/kg,7.54 % Dose/1% Body weight
same,"Kidneys, % Dose in Whole Organ",[1]; AEDP 0.01 mg/kg,1.59 % Dose
same,"Kidneys, % dose/1% body weight",[1]; AEDP 0.01 mg/kg,2.72 % Dose/1% Body weight
same,"Liver, % Dose in Whole Organ",[1]; AEDP 0.01 mg/kg,1.69 % Dose
same,"Liver, % dose/1% body weight",[1]; AEDP 0.01 mg/kg,0.617 % Dose/1% Body weight
same,"Marrow, % Dose in Whole Organ",[1]; AEDP 0.01 mg/kg,0.657 % Dose
same,"Marrow, % dose/1% body weight",[1]; AEDP 0.01 mg/kg,0.300 % Dose/1% Body weight
same,"Muscle, % Dose in Whole Organ",[1]; AEDP 0.01 mg/kg,0.988 % Dose
same,"Muscle, % dose/1% body weight",[1]; AEDP 0.01 mg/kg,0.037 % Dose/1% Body weight
same,"Pelvis, % dose/1% body weight",[1]; AEDP 0.01 mg/kg,8.53 % Dose/1% Body weight
same,"Ratio of 99mTc/85Sr, Ave Bone",[1]; AEDP 0.01 mg/kg,0.735
same,"Ratio of 99mTc/85Sr, Blood",[1]; AEDP 0.01 mg/kg,0.406
same,"Ratio of 99mTc/85Sr, Femur",[1]; AEDP 0.01 mg/kg,0.720
same,"Ratio of 99mTc/85Sr, Kidney",[1]; AEDP 0.01 mg/kg,4.99
same,"Ratio of 99mTc/85Sr, Liver",[1]; AEDP 0.01 mg/kg,3.00
same,"Ratio of 99mTc/85Sr, Marrow",[1]; AEDP 0.01 mg/kg,1.27
same,"Ratio of 99mTc/85Sr, Muscle",[1]; AEDP 0.01 mg/kg,0.338
same,"Ratio of 99mTc/85Sr, Pelvis",[1]; AEDP 0.01 mg/kg,0.794
same,"Ratio of 99mTc/85Sr, Spine",[1]; AEDP 0.01 mg/kg,0.689
same,"Ratio of 99mTc/85Sr, Tibia",[1]; AEDP 0.01 mg/kg,0.710
same,"Spine, % dose/1% body weight",[1]; AEDP 0.01 mg/kg,6.20 % Dose/1% Body weight
same,Tc/Sr ratio (Table 4),[1]; AEDP 0.01 mg/kg,0.736
same,"Tibia, % dose/1% body weight",[1]; AEDP 0.01 mg/kg,8.13 % Dose/1% Body weight
same,"Urine, % Dose",[1]; AEDP 0.01 mg/kg,48.39 % Dose
same,"W. Femur, % Dose in Whole Organ",[1]; AEDP 0.01 mg/kg,2.34 % Dose
same,"W. Tibia, % Dose in Whole Organ",[1]; AEDP 0.01 mg/kg,1.96 % Dose
same,"Blood, % Dose in Whole Organ",[1]; AEDP 0.05 mg/kg,1.01 % Dose
same,"Blood, % dose/1% body weight",[1]; AEDP 0.05 mg/kg,0.144 % Dose/1% Body weight
same,"Bone Ave, % Dose/1% Body weight",[1]; AEDP 0.05 mg/kg,8.39 % Dose/1% Body weight
same,"Femur, % dose/1% body weight",[1]; AEDP 0.05 mg/kg,8.63 % Dose/1% Body weight
same,"Kidneys, % Dose in Whole Organ",[1]; AEDP 0.05 mg/kg,1.13 % Dose
same,"Kidneys, % dose/1% body weight",[1]; AEDP 0.05 mg/kg,1.83 % Dose/1% Body weight
same,"Liver, % Dose in Whole Organ",[1]; AEDP 0.05 mg/kg,0.806 % Dose
same,"Liver, % dose/1% body weight",[1]; AEDP 0.05 mg/kg,0.176 % Dose/1% Body weight
same,"Marrow, % Dose in Whole Organ",[1]; AEDP 0.05 mg/kg,0.549 % Dose
same,"Marrow, % dose/1% body weight",[1]; AEDP 0.05 mg/kg,0.250 % Dose/1% Body weight
same,"Muscle, % Dose in Whole Organ",[1]; AEDP 0.05 mg/kg,1.20 % Dose
same,"Muscle, % dose/1% body weight",[1]; AEDP 0.05 mg/kg,0.028 % Dose/1% Body weight
same,"Pelvis, % dose/1% body weight",[1]; AEDP 0.05 mg/kg,7.82 % Dose/1% Body weight
same,"Ratio of 99mTc/85Sr, Ave Bone",[1]; AEDP 0.05 mg/kg,0.683
same,"Ratio of 99mTc/85Sr, Blood",[1]; AEDP 0.05 mg/kg,0.409
same,"Ratio of 99mTc/85Sr, Femur",[1]; AEDP 0.05 mg/kg,0.687
same,"Ratio of 99mTc/85Sr, Kidney",[1]; AEDP 0.05 mg/kg,3.30
same,"Ratio of 99mTc/85Sr, Liver",[1]; AEDP 0.05 mg/kg,1.32
same,"Ratio of 99mTc/85Sr, Marrow",[1]; AEDP 0.05 mg/kg,1.18
same,"Ratio of 99mTc/85Sr, Muscle",[1]; AEDP 0.05 mg/kg,0.236
same,"Ratio of 99mTc/85Sr, Pelvis",[1]; AEDP 0.05 mg/kg,0.684
same,"Ratio of 99mTc/85Sr, Spine",[1]; AEDP 0.05 mg/kg,0.675
same,"Ratio of 99mTc/85Sr, Tibia",[1]; AEDP 0.05 mg/kg,0.681
same,"Spine, % dose/1% body weight",[1]; AEDP 0.05 mg/kg,7.80 % Dose/1% Body weight
same,Tc/Sr ratio (Table 4),[1]; AEDP 0.05 mg/kg,0.680
same,"Tibia, % dose/1% body weight",[1]; AEDP 0.05 mg/kg,9.30 % Dose/1% Body weight
same,"Urine, % Dose",[1]; AEDP 0.05 mg/kg,44.21 % Dose
same,"W. Femur, % Dose in Whole Organ",[1]; AEDP 0.05 mg/kg,2.41 % Dose
same,"W. Tibia, % Dose in Whole Organ",[1]; AEDP 0.05 mg/kg,2.14 % Dose
same,"Blood, % Dose in Whole Organ",[1]; AEDP 0.1 mg/kg,0.96 % Dose
same,"Blood, % dose/1% body weight",[1]; AEDP 0.1 mg/kg,0.137 % Dose/1% Body weight
same,"Bone Ave, % Dose/1% Body weight",[1]; AEDP 0.1 mg/kg,7.51 % Dose/1% Body weight
same,"Femur, % dose/1% body weight",[1]; AEDP 0.1 mg/kg,7.93 % Dose/1% Body weight
same,"Kidneys, % Dose in Whole Organ",[1]; AEDP 0.1 mg/kg,0.913 % Dose
same,"Kidneys, % dose/1% body weight",[1]; AEDP 0.1 mg/kg,1.28 % Dose/1% Body weight
same,"Liver, % Dose in Whole Organ",[1]; AEDP 0.1 mg/kg,0.309 % Dose
same,"Liver, % dose/1% body weight",[1]; AEDP 0.1 mg/kg,0.083 % Dose/1% Body weight
same,"Marrow, % Dose in Whole Organ",[1]; AEDP 0.1 mg/kg,0.211 % Dose
same,"Marrow, % dose/1% body weight",[1]; AEDP 0.1 mg/kg,0.096 % Dose/1% Body weight
same,"Muscle, % Dose in Whole Organ",[1]; AEDP 0.1 mg/kg,1.46 % Dose
same,"Muscle, % dose/1% body weight",[1]; AEDP 0.1 mg/kg,0.034 % Dose/1% Body weight
same,"Pelvis, % dose/1% body weight",[1]; AEDP 0.1 mg/kg,6.24 % Dose/1% Body weight
same,"Ratio of 99mTc/85Sr, Ave Bone",[1]; AEDP 0.1 mg/kg,0.716
same,"Ratio of 99mTc/85Sr, Blood",[1]; AEDP 0.1 mg/kg,0.409
same,"Ratio of 99mTc/85Sr, Femur",[1]; AEDP 0.1 mg/kg,0.714
same,"Ratio of 99mTc/85Sr, Kidney",[1]; AEDP 0.1 mg/kg,2.94
same,"Ratio of 99mTc/85Sr, Liver",[1]; AEDP 0.1 mg/kg,0.490
same,"Ratio of 99mTc/85Sr, Marrow",[1]; AEDP 0.1 mg/kg,0.621
same,"Ratio of 99mTc/85Sr, Muscle",[1]; AEDP 0.1 mg/kg,0.205
same,"Ratio of 99mTc/85Sr, Pelvis",[1]; AEDP 0.1 mg/kg,0.725
same,"Ratio of 99mTc/85Sr, Spine",[1]; AEDP 0.1 mg/kg,0.705
same,"Ratio of 99mTc/85Sr, Tibia",[1]; AEDP 0.1 mg/kg,0.721
same,"Spine, % dose/1% body weight",[1]; AEDP 0.1 mg/kg,7.36 % Dose/1% Body weight
same,Tc/Sr ratio (Table 4),[1]; AEDP 0.1 mg/kg,0.717
same,"Tibia, % dose/1% body weight",[1]; AEDP 0.1 mg/kg,8.50 % Dose/1% Body weight
same,"Urine, % Dose",[1]; AEDP 0.1 mg/kg,38.8 % Dose
same,"W. Femur, % Dose in Whole Organ",[1]; AEDP 0.1 mg/kg,2.38 % Dose
same,"W. Tibia, % Dose in Whole Organ",[1]; AEDP 0.1 mg/kg,2.18 % Dose
same,"Blood, % Dose in Whole Organ",[1]; AEDP 0.5 mg/kg,1.38 % Dose
same,"Blood, % dose/1% body weight",[1]; AEDP 0.5 mg/kg,0.197 % Dose/1% Body weight
same,"Bone Ave, % Dose/1% Body weight",[1]; AEDP 0.5 mg/kg,6.96 % Dose/1% Body weight
same,"Femur, % dose/1% body weight",[1]; AEDP 0.5 mg/kg,6.59 % Dose/1% Body weight
same,"Kidneys, % Dose in Whole Organ",[1]; AEDP 0.5 mg/kg,1.11 % Dose
same,"Kidneys, % dose/1% body weight",[1]; AEDP 0.5 mg/kg,2.11 % Dose/1% Body weight
same,"Liver, % Dose in Whole Organ",[1]; AEDP 0.5 mg/kg,0.216 % Dose
same,"Liver, % dose/1% body weight",[1]; AEDP 0.5 mg/kg,0.079 % Dose/1% Body weight
same,"Marrow, % Dose in Whole Organ",[1]; AEDP 0.5 mg/kg,0.23 % Dose
same,"Marrow, % dose/1% body weight",[1]; AEDP 0.5 mg/kg,0.104 % Dose/1% Body weight
same,"Muscle, % Dose in Whole Organ",[1]; AEDP 0.5 mg/kg,0.883 % Dose
same,"Muscle, % dose/1% body weight",[1]; AEDP 0.5 mg/kg,0.021 % Dose/1% Body weight
same,"Pelvis, % dose/1% body weight",[1]; AEDP 0.5 mg/kg,7.93 % Dose/1% Body weight
same,"Ratio of 99mTc/85Sr, Ave Bone",[1]; AEDP 0.5 mg/kg,0.644
same,"Ratio of 99mTc/85Sr, Blood",[1]; AEDP 0.5 mg/kg,0.280
same,"Ratio of 99mTc/85Sr, Femur",[1]; AEDP 0.5 mg/kg,0.628
same,"Ratio of 99mTc/85Sr, Kidney",[1]; AEDP 0.5 mg/kg,2.47
same,"Ratio of 99mTc/85Sr, Liver",[1]; AEDP 0.5 mg/kg,0.459
same,"Ratio of 99mTc/85Sr, Marrow",[1]; AEDP 0.5 mg/kg,0.500
same,"Ratio of 99mTc/85Sr, Muscle",[1]; AEDP 0.5 mg/kg,0.140
same,"Ratio of 99mTc/85Sr, Pelvis",[1]; AEDP 0.5 mg/kg,0.692
same,"Ratio of 99mTc/85Sr, Spine",[1]; AEDP 0.5 mg/kg,0.614
same,"Ratio of 99mTc/85Sr, Tibia",[1]; AEDP 0.5 mg/kg,0.632
same,"Spine, % dose/1% body weight",[1]; AEDP 0.5 mg/kg,6.05 % Dose/1% Body weight
same,Tc/Sr ratio (Table 4),[1]; AEDP 0.5 mg/kg,0.645
same,"Tibia, % dose/1% body weight",[1]; AEDP 0.5 mg/kg,7.27 % Dose/1% Body weight
same,"Urine, % Dose",[1]; AEDP 0.5 mg/kg,48.85 % Dose
same,"W. Femur, % Dose in Whole Organ",[1]; AEDP 0.5 mg/kg,1.74 % Dose
same,"W. Tibia, % Dose in Whole Organ",[1]; AEDP 0.5 mg/kg,1.55 % Dose
[18FH] [fluorine-18],half-life (radionuclide),[2],1.83 h
[99Tc] [technitium-99m],half-life (radionuclide),[2],6 h
